Data taken from patent US10167262B2, “Herbicidal substituted 3-arylpyrazoles” (FMC CORPORATION, priority 2014, dated 2019).

Tests used:
Format in all cases: in vivo
[1] = test system: winter wheat (Triticum aestivum); experiment: Test C pre-/postemergence greenhouse test, plant response rating 0-100
Procedure, shortened: (§1)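 After treatment, pots stay in the greenhouse 13–15 days before each species is compared with untreated controls and given a 0–100 visual score. Preemergence seeds are in loam blended with sand; postemergence plants, 1–4 leaves, are in peat-based medium.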

[2] = test system: morningglory (Ipomoea coccinea); experiment: as above
Procedure, shortened: as §1

[3] = test system: giant foxtail (Setaria faberii); experiment: as above
Procedure, shortened: as §1

[4] = test system: johnsongrass (Sorghum halepense); experiment: as above
Procedure, shortened: as §1

[5] = test system: velvetleaf (Abutilon theophrasti); experiment: as above
Procedure, shortened: as §1

corn (Zea mays) = experiment: as above
Procedure, shortened: as §1

[6] = test system: pigweed (Amaranthus retroflexus); experiment: as above
Procedure, shortened: as §1

[7] = test system: lambsquarters (Chenopodium album); experiment: as above
Procedure, shortened: as §1

[8] = test system: blackgrass (Alopecurus myosuroides); experiment: as above
Procedure, shortened: as §1

soybean (Glycine max) = experiment: as above
Procedure, shortened: as §1

kochia (Kochia scoparia) = experiment: Test C postemergence greenhouse test, plant response rating 0-100; conditions: for Plant response rating, Kochia: scale 0 to 100
Source text: (§2) At the same time, plants selected from these crop and weed species and also winter barley (Hordeum vulgare), bermudagrass (Cynodon dactylon), downy bromegrass (Bromus tectorum), canarygrass (Phalaris minor), cocklebur (common cocklebur, Xanthium strumarium), woolly cupgrass (Eriochloa villosa), deadnettle (henbit deadnettle, Lamium amplexicaule), green foxtail (Setaria viridis), goosegrass (Eleusine indica), surinam grass (Brachiaria decumbens), windgrass (Apera spica-venti), chickweed (common chickweed, Stellaria media), kochia (Kochia scoparia), and wild oat (Avena fatua), were planted in pots containing Redi-Earth® planting medium (Scotts Company, 14111 Scottslawn Road, Marysville, Ohio 43041) comprising spaghnum peat moss, vermiculite, wetting agent and starter nutrients and treated with postemergence applications of test chemicals formulated in the same manner. Plants ranged in height from 2 to 18 cm (1- to 4-leaf stage) for postemergence treatments. Treated plants and controls were maintained in a greenhouse for 13 to 15 days, after which time all species were compared to controls and visually evaluated. Plant response ratings, summarized in Table C, are based on a scale of 0 to 100 where 0 is no effect and 100 is complete control. A dash (-) response means no test result.

wild oat (Avena fatua) = experiment: as above; conditions: for Plant response rating, Oat, Wild: scale 0 to 100
Source text: as §2

[9] = test system: chickweed (common chickweed, Stellaria media); experiment: as above; conditions: for Plant response rating, Chickweed: scale 0 to 100
Source text: as §2

[10] = Postemergence, 250 g ai/ha, scale 0 to 100
[11] = Postemergence, 500 g ai/ha, scale 0 to 100
[12] = Preemergence, 0 to 100 scale (0 no effect, 100 complete control), rate 500 g ai/ha per head r3, sub-head of this section not shown

O=C(c1ccccc1)c1cn(S(=O)(=O)CC(F)(F)F)nc1-c1cc(Cl)cc(Cl)c1 [Compound 3]
Plant response rating (0 to 100), Wheat ([1]; Postemergence, 62 g ai/ha): 0
Plant response rating (0 to 100), Wheat ([1]; Postemergence, 125 g ai/ha): 0
Plant response rating, Wheat [1, 10]: 0
Plant response rating, Wheat [1, 11]: 0
Plant response rating, Wheat ([1]; Preemergence, 62 g ai/ha): 0
Plant response rating, Wheat ([1]; Preemergence, 125 g ai/ha): 0
Plant response rating, Wheat ([1]; Preemergence, 250 g ai/ha): 0
Plant response rating, Wheat ([1]; Preemergence, 500 g ai/ha): 0
Plant response rating, Wheat ([1]; Preemergence, 0 to 100 scale (0 no effect, 100 complete control), rate 500 g ai/ha): 0
Plant response rating (0 to 100), Morningglory ([2]; Postemergence, 62 g ai/ha): 0
Plant response rating (0 to 100), Morningglory ([2]; Postemergence, 125 g ai/ha): 0
Plant response rating, Morningglory [2, 10]: 0
Plant response rating, Morningglory [2, 11]: 0
Plant response rating, Morningglory ([2]; Preemergence, 62 g ai/ha): 0
Plant response rating, Morningglory ([2]; Preemergence, 125 g ai/ha): 0
Plant response rating, Morningglory ([2]; Preemergence, 250 g ai/ha): 10
Plant response rating, Morningglory ([2]; Preemergence, 500 g ai/ha): 10
Plant response rating (0 to 100), Foxtail, Giant ([3]; Postemergence, 62 g ai/ha): 0
Plant response rating (0 to 100), Foxtail, Giant ([3]; Postemergence, 125 g ai/ha): 0
Plant response rating, Foxtail, Giant [3, 10]: 0
Plant response rating, Foxtail, Giant [3, 11]: 0
Plant response rating, Foxtail, Giant ([3]; Preemergence, 62 g ai/ha): 0
Plant response rating, Foxtail, Giant ([3]; Preemergence, 125 g ai/ha): 0
Plant response rating, Foxtail, Giant ([3]; Preemergence, 250 g ai/ha): 0
Plant response rating, Foxtail, Giant ([3]; Preemergence, 500 g ai/ha): 0
Plant response rating (0 to 100), Johnsongrass ([4]; Postemergence, 62 g ai/ha): 0
Plant response rating (0 to 100), Johnsongrass ([4]; Postemergence, 125 g ai/ha): 0
Plant response rating, Johnsongrass [4, 10]: 0
Plant response rating, Johnsongrass [4, 11]: 0
Plant response rating, Johnsongrass ([4]; Preemergence, 62 g ai/ha): 0
Plant response rating, Johnsongrass ([4]; Preemergence, 125 g ai/ha): 0
Plant response rating, Johnsongrass ([4]; Preemergence, 250 g ai/ha): 0
Plant response rating, Johnsongrass ([4]; Preemergence, 500 g ai/ha): 0
Plant response rating (0 to 100), Velvetleaf ([5]; Postemergence, 62 g ai/ha): 70
Plant response rating (0 to 100), Velvetleaf ([5]; Postemergence, 125 g ai/ha): 70
Plant response rating, Velvetleaf [5, 10]: 75
Plant response rating, Velvetleaf [5, 11]: 85
Plant response rating, Velvetleaf ([5]; Preemergence, 62 g ai/ha): 50
Plant response rating, Velvetleaf ([5]; Preemergence, 250 g ai/ha): 55
Plant response rating, Velvetleaf ([5]; Preemergence, 500 g ai/ha): 100
Plant response rating, Velvetleaf [5, 12]: 20
Plant response rating (0 to 100), Corn (corn (Zea mays); Postemergence, 62 g ai/ha): 0
Plant response rating (0 to 100), Corn (corn (Zea mays); Postemergence, 125 g ai/ha): 5
Plant response rating, Corn (corn (Zea mays); [10]): 5
Plant response rating, Corn (corn (Zea mays); [11]): 5
Plant response rating, Corn (corn (Zea mays); Preemergence, 62 g ai/ha): 0
Plant response rating, Corn (corn (Zea mays); Preemergence, 125 g ai/ha): 0
Plant response rating, Corn (corn (Zea mays); Preemergence, 250 g ai/ha): 0
Plant response rating, Corn (corn (Zea mays); Preemergence, 500 g ai/ha): 0
Plant response rating (0 to 100), Pigweed ([6]; Postemergence, 62 g ai/ha): 85
Plant response rating (0 to 100), Pigweed ([6]; Postemergence, 125 g ai/ha): 95
Plant response rating, Pigweed [6, 10]: 100
Plant response rating, Pigweed ([6]; Preemergence, 62 g ai/ha): 30
Plant response rating, Pigweed ([6]; Preemergence, 125 g ai/ha): 100
Plant response rating, Pigweed ([6]; Preemergence, 250 g ai/ha): 100
Plant response rating, Pigweed ([6]; Preemergence, 500 g ai/ha): 100
Plant response rating (0 to 100), Lambsquarters ([7]; Postemergence, 62 g ai/ha): 55
Plant response rating, Lambsquarters [7, 10]: 80
Plant response rating, Lambsquarters [7, 11]: 100
Plant response rating, Lambsquarters ([7]; Preemergence, 62 g ai/ha): 100
Plant response rating, Lambsquarters ([7]; Preemergence, 125 g ai/ha): 100
Plant response rating, Lambsquarters ([7]; Preemergence, 250 g ai/ha): 100
Plant response rating, Lambsquarters ([7]; Preemergence, 500 g ai/ha): 100
Plant response rating (0 to 100), Blackgrass ([8]; Postemergence, 62 g ai/ha): 0
Plant response rating, Blackgrass ([8]; Postemergence, 125 g ai/ha, scale 0 to 100): 0
Plant response rating, Blackgrass [8, 10]: 0
Plant response rating, Blackgrass [8, 11]: 0
Plant response rating, Blackgrass ([8]; Preemergence, 62 g ai/ha): 0
Plant response rating, Blackgrass ([8]; Preemergence, 125 g ai/ha): 0
Plant response rating, Blackgrass ([8]; Preemergence, 250 g ai/ha): 0
Plant response rating, Blackgrass ([8]; Preemergence, 500 g ai/ha): 0
Plant response rating (0 to 100), Soybean (soybean (Glycine max); Postemergence, 62 g ai/ha): 0
Plant response rating (0 to 100), Soybean (soybean (Glycine max); Postemergence, 125 g ai/ha): 0
Plant response rating, Soybean (soybean (Glycine max); [10]): 0
Plant response rating, Soybean (soybean (Glycine max); [11]): 0
Plant response rating, Soybean (soybean (Glycine max); Preemergence, 62 g ai/ha): 0
Plant response rating, Soybean (soybean (Glycine max); Preemergence, 125 g ai/ha): 0
Plant response rating, Soybean (soybean (Glycine max); Preemergence, 250 g ai/ha): 0
Plant response rating, Soybean (soybean (Glycine max); Preemergence, 500 g ai/ha): 0
Plant response rating, Soybean (soybean (Glycine max); [12]): 0
Plant response rating (0 to 100), Kochia (kochia (Kochia scoparia); 62 g ai/ha): 80
Plant response rating (0 to 100), Kochia (kochia (Kochia scoparia); 125 g ai/ha): 85
Plant response rating, Kochia (kochia (Kochia scoparia); 250 g ai/ha): 85
Plant response rating, Kochia (kochia (Kochia scoparia); 500 g ai/ha): 85
Plant response rating (0 to 100), Oat, Wild (wild oat (Avena fatua); 62 g ai/ha): 0
Plant response rating (0 to 100), Oat, Wild (wild oat (Avena fatua); 125 g ai/ha): 0
Plant response rating, Oat, Wild (wild oat (Avena fatua); 250 g ai/ha): 0
Plant response rating, Oat, Wild (wild oat (Avena fatua); 500 g ai/ha): 0
Plant response rating (0 to 100), Chickweed ([9]; 62 g ai/ha): 100
Plant response rating (0 to 100), Chickweed ([9]; 125 g ai/ha): 100
Plant response rating, Chickweed ([9]; 250 g ai/ha): 100
Plant response rating, Chickweed ([9]; 500 g ai/ha): 100
